Test results as given in patent US7169756B2, “Streptogramin antibiotics” (priority 2005, dated 2007).
≈ marks a conversion by molar mass, not a printed value. Where two headings read alike, the source gives them in different places. Numbered stars: 1 amine (or outer) side, 2 acyl side, 3 side chain; on linkers, the order of the positions; unused ones are H or OH. Bridge positions count the residues as written; N and C are the ends. Square brackets hold non-standard residues; d marks the D form. Peptide text beside a SMILES is read from it. * marks the point of attachment. X1 = O=C1C[C@@H](C(=O)[*:2])N([*:1])C[C@H]1CS[C@@H]1CN2CCC1CC2; NMePhe(4-NMe2) = CN[C@@H](Cc1ccc(N(C)C)cc1)C(=O)O; Picolinoyl(3-OH) = O=C(c1ncccc1O)*; Phg = N[C@H](C(=O)O)c1ccccc1; Orn = NCCC[C@H](N)C(=O)O; dAbu = CC[C@@H](N)C(=O)O; Dap = NC[C@H](N)C(=O)O

What was measured:
[1] = system: Staphylococcus aureus RN4220/pJIM2246Ωvgb; assay: microbe, parasite or virus in culture; format: cell-based
Description: (§1) The antibiotic activity of the peptides synthesized in this study was initially assayed using a disk assay where samples were applied to sterile paper disks placed on a fresh lawn of bacterial culture on appropriate agar plates as required by the organism. These were then incubated for 16 hr at 37° C. and the zone of growth inhibition surrounding the disks recorded. For quantitative assessment of antibiotic activity in liquid culture, the minimal inhibitory concentration (MIC) of peptides was determined by serial dilution studies. The peptides and standard antibiotics were dissolved in DMSO and the final concentration of DMSO in the liquid cultures was 5%. Both S. aureus RN4220 and E. coli BAS901 were able to grow efficiently at this level of DMSO.

[2] = system: Staphylococcus aureus RN4220/pJIM2246; assay: microbe, parasite or virus in culture; format: cell-based
Description: as §1

[3] = system: Streptococcus pneumoniae (ATCC 6305); assay: microbe, parasite or virus in culture; format: cell-based
Description: as §1

[4] = system: Staphylococcus epidermidis (ATCC 12228); assay: microbe, parasite or virus in culture; format: cell-based
Description: as §1

[5] = system: Staphylococcus epidermidis (ATCC 14990); assay: microbe, parasite or virus in culture; format: cell-based
Description: as §1

Haemophilus influenza = assay: disk assay, zone of growth inhibition; format: cell-based, Haemophilus influenzae
Description: as §1
(§2) Crude material from the initial synthesis reactions was used to test the potential of the analogues as antibiotics in susceptibility assays where a solution of the compound was placed on a paper disk on a lawn of bacteria. As described above, E. coli BAS901 is deficient in the Imp/OstA protein, an outer membrane protein, involved in cell envelope biogenesis (1, 5). […] These were then incubated for 16 hrs at 37° C. and the zone of growth inhibition surrounding the disks recorded.

B. subtilis 168 = format: cell-based, Bacillus subtilis
Description: as §1, §2

E. coli ribosomes = details: fluorescence titration, purified intact E. coli ribosomes
in vitro translation = assay: In Vitro Translation Assay; format: biochemical; details: FIG. 6
Description: Inhibition of translation was monitored using an ActivePro In Vitro Translation Kit from Ambion. Briefly, a reaction mixture was prepared as per the manufacturer's instructions that contained all of the constituents necessary (including [^35S]-methionine) except for DNA template. These mixtures were then preincubated for 15 min at room temperature in the presence or absence of various antibiotics. Subsequent to the preincubation period, a control template containing a chloramphenicol acetyltransferase gene under control of a bacteriophage T7 promoter was added and the reaction carried out for 1 hr at 37° C. Due to the insoluble nature of some of the antibiotics, the final DMSO concentration in each reaction including controls was maintained at 5% (v/v). Aliquots were taken after 1 hr, and separated on SDS polyacrylamide gels. The efficiency of translation of ^35S-labeled […] was analyzed and quantified using a Typhoon 9200 variable mode imager (Image-Quant 5.2 software).

[6] = system: Streptococcus pneumoniae (ATCC 6305); format: cell-based
Description: as §1
(§3) Crude material from the initial synthesis reactions was used to test the potential of the analogues as antibiotics in susceptibility assays where a solution of the compound was placed on a paper disk on a lawn of bacteria. As described above, E. coli BAS901 is deficient in the Imp/OstA protein, an outer membrane protein, involved in cell envelope biogenesis (1, 5). […] The antibiotic activity of the peptides synthesized in this study was initially assayed using a disk assay where samples were applied to sterile paper disks placed on a fresh lawn of bacterial culture on Tryptic Soya, Luria Broth, or Brain Heart Infusion Agar plates. These were then incubated for 16 hrs at 37° C. and the zone of growth inhibition surrounding the disks recorded.

[7] = system: Enterococcus faecalis (ATCC 29212); format: cell-based
Description: as §1, §3

[8] = system: Staphylococcus epidermidis (ATCC 12228); format: cell-based
Description: as §1, §3

[9] = system: Staphylococcus epidermidis (ATCC 14990); format: cell-based
Description: as §1, §3

E. coli BAS901/pUC19 = assay: microbe, parasite or virus in culture; format: cell-based, Escherichia coli
From the text: (§4) A hyperpermeable E. coli strain, E. coli BAS901, harboring a plasmid constitutively expressing Vgb was created for in vivo studies. The plasmids pVGB, described previously in [14], and […] were digested with Xbal and BamHI, to yield an approximately 1 kb fragment containing a ribosomal binding site upstream of vgb, and linearized pUC19 backbone, respectively. The vgb fragment was then subcloned into the linearized pUC19 backbone downstream of pLac yielding pUC19-VGB. Both pUC19-VGB and pUC19 were transformed E. coli BAS901.
as §1

E. coli BAS901/pUCVgb [10] = assay: microbe, parasite or virus in culture; format: cell-based, Escherichia coli
From the text: as §4, §1

E. coli BAS901/pUC19ermB = assay: microbe, parasite or virus in culture; format: cell-based, Escherichia coli
From the text: In order to test the effects of 5 against E. coli BAS901 harboring ermB, the 23S rRNA methyltransferase, the plasmid pJIM2246 ΩermB [13] was purified from Staphylococcus aureus RN4220/pJIM2246 ΩermB. ErmB was subsequently amplified from pJIM2246 ΩermB via polymerase chain reaction using primers 5′-[…] AND 5′-[…] (engineered restriction enzyme sites are underlined). The amplified product was subcloned into pCR4Blunt-TOPO (Invitrogen) and transformed into E. coli XL10 GOLD, resulting in ermB being positioned in frame with the lacZ gene. This construct, designated pTOPOerm, was then used as template in the reamplification of ermB using a new forward primer containing a strong ribosomal binding consensus sequence (shown in italics); 5-[…]. […]
as §1, with “The peptides and standard antibiotics were dissolved in DMSO and the final concentration of DMSO in the liquid cultures was 5%. Both S. aureus RN4220 and E. coli BAS901 were able to grow efficiently at this level of DMSO.” left out

E. coli BAS901/pUCVgb [11] = assay: disk assay, zone of growth inhibition; format: cell-based, Escherichia coli; details: Vgb constitutively expressed
From the text: as §4, §1, §3

E. coli (ATCC 25922) = assay: disk assay, zone of growth inhibition; format: cell-based, Escherichia coli; details: wild-type
Description: as §1, §2

[12] = E. coli BAS901/pUCVgb (expressing Vgb)

CC(C)C[C@@H]1NC(=O)[C@H](CCCN)NC(=O)[C@H]([C@@H](C)O)NC(=O)[C@@H](NC(=O)c2ncccc2O)CNC(=O)[C@H](Cc2ccccc2)NC(=O)[C@@H]2CCCN2C(=O)[C@@H](Cc2ccccc2)NC1=O [Compound 5] ({Picolinoyl(3-OH)}-[Dap]T[Orn]L[dF]PF; lactam 1-C)
MIC ([1]; Staphylococcus aureus RN4220/pJIM2246Ωvgb): 256 µg/mL (≈ 276 µM)
MIC [2]: 256 µg/mL (≈ 276 µM)
MIC ([3]; ATCC 6305, 16 h): 32 µg/mL (≈ 34.5 µM)
MIC ([4]; ATCC 12228, 16 h): 64 µg/mL (≈ 69 µM)
MIC ([5]; ATCC 14990, 16 h): 64 µg/mL (≈ 69 µM)
Zone of Inhibition (Haemophilus influenza): n.i.
Zone of Inhibition (B. subtilis 168; 168, 16 h): 0.8 cm
ribosome binding (increase of Hpa fluorescence) (E. coli ribosomes): did not appear to interact with the ribosome
inhibition of in vitro translation (in vitro translation; at 250 μg/ml): did not
Zone of Inhibition ([6]; ATCC 6305, 16 h): 0.8 cm
Zone of Inhibition ([7]; ATCC 29212, 16 h): 0.75 cm
Zone of Inhibition ([8]; ATCC 12228, 16 h): 0.85 cm
Zone of Inhibition ([9]; ATCC 14990, 16 h): 0.75 cm
MIC (E. coli BAS901/pUC19; E. coli BAS901/pUC19 (control), 5% DMSO): 32 µg/mL (≈ 34.5 µM)
MIC (E. coli BAS901/pUCVgb [10]; [12]): 32 µg/mL (≈ 34.5 µM)
MIC (E. coli BAS901/pUC19ermB; E. coli BAS901/pUC19ermB (Erm methyltransferase)): 32 µg/mL (≈ 34.5 µM)
Zone of Inhibition (E. coli BAS901/pUCVgb [11]): still exhibit zones of inhibition
Zone of Inhibition (E. coli (ATCC 25922)): n.i.

CC[C@H]1NC(=O)[C@@H](NC(=O)c2ncccc2O)[C@@H](C)OC(=O)[C@H](c2ccccc2)NC(=O)[C@@H]2CC(=O)[C@H](CS[C@@H]3CN4CCC3CC4)CN2C(=O)[C@H](Cc2ccc(N(C)C)cc2)N(C)C(=O)[C@@H]2CCCN2C1=O [Quinupristin, quinupristin, reference compound] ({Picolinoyl(3-OH)}-T[dAbu]P[NMePhe(4-NMe2)][X1][Phg]; ester 1-C)
MIC ([1]; Staphylococcus aureus): 8 µg/mL (≈ 7.83 µM)
MIC [2]: 2 µg/mL (≈ 1.96 µM)
MIC ([3]; ATCC6305, Streptococcus pneumoniae (ATCC 6305), read-out: MIC): 1 µg/mL (≈ 0.978 µM)
MIC ([4]; ATCC12228, Staphylococcus epidermidis (ATCC 12228), read-out: MIC): 0.5 µg/mL (≈ 0.489 µM)
MIC ([5]; ATCC14990, Staphylococcus epidermidis (ATCC 14990), read-out: MIC): 1 µg/mL (≈ 0.978 µM)
Zone of Inhibition (Haemophilus influenza): n.i.
Zone of Inhibition (B. subtilis 168; B. subtilis 168, disk assay): 2.2 cm
ribosome binding (increase of Hpa fluorescence) (E. coli ribosomes): did support ribosome binding
inhibition of in vitro translation (in vitro translation; 15 min preincubation, 1 hr at 37° C., 5% DMSO, concentration not given): did block
Zone of Inhibition ([6]; Streptococcus pneumoniae (ATCC 6305), disk assay): 2.1 cm
Zone of Inhibition ([7]; Enterococcus faecalis (ATCC 29212), disk assay): 1.8 cm
Zone of Inhibition ([8]; Staphylococcus epidermidis (ATCC 12228), disk assay): 3.4 cm
Zone of Inhibition ([9]; Staphylococcus epidermidis (ATCC 14990), disk assay): 3.0 cm
MIC (E. coli BAS901/pUC19; Escherichia coli, BAS901/PUC19): 4 µg/mL (≈ 3.91 µM)
MIC (E. coli BAS901/pUCVgb [10]; [12]): increased significantly
MIC (E. coli BAS901/pUCVgb [10]; Escherichia coli, BAS901/PUCVGB): > 256 µg/mL
MIC (E. coli BAS901/pUC19ermB; Escherichia coli, BAS901/PUC19ERMB): 16 µg/mL (≈ 15.7 µM)
Zone of Inhibition (E. coli BAS901/pUCVgb [11]): n.i.^a
Zone of Inhibition (E. coli BAS901/pUCVgb [11]; listed as quinupristin): inactivated
Zone of Inhibition (E. coli (ATCC 25922)): n.i.
